Active and inactive are the calls of the source. No cut-off for these calls is given here.
Key:
[1] = target: T1, von Hippel-Lindau disease tumor suppressor/Serine/threonine-protein kinase PAK 1 (Homo sapiens, UniProt Q13153+P40337); assay: PROTAC activity at VHL/PAK1 in human MDA-MB-231 cells assessed as induction of protein degradation at 0.1 uM incubated for 48 hrs by Western blot analysis relative to control; type: cell-based
Target sequence in this assay (Q13153 2-545 limits assumed): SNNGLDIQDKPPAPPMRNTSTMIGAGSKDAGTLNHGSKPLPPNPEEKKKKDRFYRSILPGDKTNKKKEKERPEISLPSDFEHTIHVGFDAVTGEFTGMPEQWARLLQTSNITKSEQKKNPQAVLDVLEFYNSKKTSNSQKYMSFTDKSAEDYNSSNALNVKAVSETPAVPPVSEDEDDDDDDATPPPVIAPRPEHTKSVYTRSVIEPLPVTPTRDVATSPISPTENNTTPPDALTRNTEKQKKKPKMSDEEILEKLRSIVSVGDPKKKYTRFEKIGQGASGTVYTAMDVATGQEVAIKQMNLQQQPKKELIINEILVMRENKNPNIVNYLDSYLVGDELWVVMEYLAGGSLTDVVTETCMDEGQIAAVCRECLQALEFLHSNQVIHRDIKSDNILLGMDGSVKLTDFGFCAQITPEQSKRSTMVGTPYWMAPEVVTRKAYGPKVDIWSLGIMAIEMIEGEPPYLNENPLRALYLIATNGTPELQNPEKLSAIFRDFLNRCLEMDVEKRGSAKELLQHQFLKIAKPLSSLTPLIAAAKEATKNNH
Target sequence in this assay (P40337 whole entry partner): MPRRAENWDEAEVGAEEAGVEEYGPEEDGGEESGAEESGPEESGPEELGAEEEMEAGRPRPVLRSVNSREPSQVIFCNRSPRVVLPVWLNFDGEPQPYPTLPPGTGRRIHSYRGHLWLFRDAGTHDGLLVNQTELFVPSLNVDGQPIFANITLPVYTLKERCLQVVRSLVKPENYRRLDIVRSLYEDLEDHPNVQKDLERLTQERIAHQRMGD

[2] = target: T1, von Hippel-Lindau disease tumor suppressor/Serine/threonine-protein kinase PAK 1; assay: PROTAC activity at VHL/PAK1 in human MDA-MB-231 cells assessed as fold change in protein expression at 2.5 uM incubated for 48 hrs by Western blot analysis relative to control; type: cell-based
Target sequence in this assay (Q13153 2-545 limits assumed): as the sequence (Q13153 2-545 limits assumed) above
Target sequence in this assay (P40337 whole entry partner): as the sequence (P40337 whole entry partner) above

[3] = target: T1, von Hippel-Lindau disease tumor suppressor/Serine/threonine-protein kinase PAK 1; assay: PROTAC activity at VHL/PAK1 in human MDA-MB-231 cells assessed as induction of protein degradation incubated for 48 hrs by Western blot analysis; type: cell-based
[4] = target: T1, von Hippel-Lindau disease tumor suppressor/Serine/threonine-protein kinase PAK 1; assay: PROTAC activity at VHL/PAK1 in human MDA-MB-231 cells assessed as induction of protein degradation incubated for 48 hrs in presence of Bortezomib by Western blot analysis; type: cell-based
Target sequence in this assay (Q13153 2-545 limits assumed): as the sequence (Q13153 2-545 limits assumed) above
Target sequence in this assay (P40337 whole entry partner): as the sequence (P40337 whole entry partner) above

MDA-MB-231 [5] = assay: Antiproliferative activity against human MDA-MB-231 cells assessed as decrease in colony formation by crystal violet staining based analysis; type: functional, cell-based; details: dose <= 10.0 µM
MDA-MB-231 [6] = assay: Antiproliferative activity against human MDA-MB-231 cells assessed as decrease in Ki-67 expression at 5 uM incubated for 24 hrs by immunofluorescence based analysis; type: functional, cell-based
[7] = target: T2, Serine/threonine-protein kinase PAK 1 (Homo sapiens, UniProt Q13153); assay: Inhibition of PAK1 in human MDA-MB-231 cells incubated upto 48 hrs by Western blot analysis; type: cell-based
T2 sequence (Q13153 whole entry): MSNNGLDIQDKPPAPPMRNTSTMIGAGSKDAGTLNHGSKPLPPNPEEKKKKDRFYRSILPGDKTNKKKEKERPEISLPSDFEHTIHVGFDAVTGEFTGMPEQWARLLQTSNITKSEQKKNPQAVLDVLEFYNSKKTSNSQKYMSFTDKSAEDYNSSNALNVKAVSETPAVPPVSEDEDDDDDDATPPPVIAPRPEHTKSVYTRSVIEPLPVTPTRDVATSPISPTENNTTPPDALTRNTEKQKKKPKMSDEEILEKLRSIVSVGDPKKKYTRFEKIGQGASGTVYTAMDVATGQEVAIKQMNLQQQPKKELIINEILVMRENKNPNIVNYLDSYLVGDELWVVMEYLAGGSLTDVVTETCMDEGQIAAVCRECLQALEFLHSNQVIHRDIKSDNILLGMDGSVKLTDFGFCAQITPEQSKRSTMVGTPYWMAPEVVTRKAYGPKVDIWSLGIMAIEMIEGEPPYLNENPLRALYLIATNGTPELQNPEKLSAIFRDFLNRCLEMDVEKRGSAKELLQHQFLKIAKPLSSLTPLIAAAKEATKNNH

[8] = target: T2, Serine/threonine-protein kinase PAK 1; assay: Inhibition of PAK1 phosphorylation at S144 in human MDA-MB-231 cells incubated upto 48 hrs by Western blot analysis; type: cell-based
[9] = target: T2, Serine/threonine-protein kinase PAK 1; assay: Inhibition of PAK1 phosphorylation at S199 in human MDA-MB-231 cells incubated upto 48 hrs by Western blot analysis; type: cell-based
[10] = target: Serine/threonine-protein kinase PAK 2 (Homo sapiens) (UniProt Q13177); assay: Inhibition of PAK2 in human MDA-MB-231 cells incubated upto 48 hrs by Western blot analysis; type: cell-based
Sequence of Serine/threonine-protein kinase PAK 2 (Homo sapiens) (Q13177 whole entry): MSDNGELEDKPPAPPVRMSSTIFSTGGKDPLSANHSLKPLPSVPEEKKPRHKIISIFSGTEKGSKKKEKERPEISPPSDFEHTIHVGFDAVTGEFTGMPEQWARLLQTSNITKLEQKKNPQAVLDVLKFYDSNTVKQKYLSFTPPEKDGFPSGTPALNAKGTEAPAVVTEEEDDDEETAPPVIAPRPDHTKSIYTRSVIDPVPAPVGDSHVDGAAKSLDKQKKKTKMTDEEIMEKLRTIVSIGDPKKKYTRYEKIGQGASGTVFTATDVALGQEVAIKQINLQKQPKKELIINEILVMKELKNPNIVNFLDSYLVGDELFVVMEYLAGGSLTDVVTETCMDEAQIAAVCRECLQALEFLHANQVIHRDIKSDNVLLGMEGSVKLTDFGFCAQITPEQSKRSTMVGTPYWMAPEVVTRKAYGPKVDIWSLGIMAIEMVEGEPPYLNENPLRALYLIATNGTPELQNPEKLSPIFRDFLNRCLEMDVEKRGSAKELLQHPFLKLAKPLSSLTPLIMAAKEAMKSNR

MDA-MB-231 [11] = assay: Induction of apoptosis in human MDA-MB-231 cells assessed as early apoptotic cells at 2.5 to 10 uM incubated for 12 hrs by Annexin V-FITC/PI staining based flow cytometry (reference value: 1.70 %); type: functional; details: dose 2.5-10 µM
MDA-MB-231 [12] = assay: Induction of apoptosis in human MDA-MB-231 cells assessed as early apoptotic cells at 2.5 to 10 uM incubated for 24 hrs by Annexin V-FITC/PI staining based flow cytometry (reference value: 1.70 %); type: functional; details: dose 2.5-10 µM
MDA-MB-231 [13] = assay: Induction of apoptosis in human MDA-MB-231 cells assessed as late apoptotic cells at 2.5 to 10 uM incubated for 48 hrs by Annexin V-FITC/PI staining based flow cytometry (reference value: 2.46 %); type: functional; details: dose 2.5-10 µM
MDA-MB-231 [14] = assay: Induction of apoptosis in human MDA-MB-231 cells assessed as increase in cleaved caspase-9 level at 2.5 to 10 uM incubated upto 48 hrs by Western blot analysis; type: functional, cell-based; details: dose 2.5-10 µM
MDA-MB-231 [15] = assay: Induction of apoptosis in human MDA-MB-231 cells assessed as increase in cleaved caspase-8 level at 2.5 to 10 uM incubated upto 48 hrs by Western blot analysis; type: functional, cell-based; details: dose 2.5-10 µM
MDA-MB-231 [16] = assay: Induction of apoptosis in human MDA-MB-231 cells assessed as increase in cleaved PARP level at 2.5 to 10 uM incubated upto 48 hrs by Western blot analysis; type: functional, cell-based; details: dose 2.5-10 µM
MDA-MB-231 [17] = assay: Inhibition of cell migration in human MDA-MB-231 cells upto 10 uM incubated upto 48 hrs by wound healing assay; type: functional, cell-based
MDA-MB-231 [18] = assay: Inhibition of cell migration in human MDA-MB-231 cells assessed as decrease in MMP-2 level by Western blot analysis; type: functional, cell-based; details: time <= 48.0 hrs, TDE = time-dependent effect
MDA-MB-231 [19] = assay: Inhibition of cell proliferation of human MDA-MB-231 cells at 2.5 uM by crystal violet staining based colony formation assay; type: functional
MDA-MB-231 [20] = assay: Inhibition of 3D-spherioid formation of human MDA-MB-231 cells at 2.5 uM by crystal violet staining based colony formation assay; type: functional, cell-based
MDA-MB-231 [21] = assay: Inhibition of cell proliferation of human MDA-MB-231 cells at 2.5 uM by EdU staining based analysis; type: functional
MDA-MB-231 [22] = assay: Inhibition of cell migration in human MDA-MB-231 cells at 2.5 uM incubated upto 48 hrs by wound healing assay; type: functional, cell-based
MDA-MB-231 [23] = assay: Induction of apoptosis in human MDA-MB-231 cells assessed as viable cells at 2.5 uM incubated for 12 to 48 hrs by Annexin V-FITC/PI staining based flow cytometry (reference value: 97.0 %); type: functional; details: time 12-48 hrs, read-out: Activity
MDA-MB-231 [24] = assay: Induction of apoptosis in human MDA-MB-231 cells assessed as early apoptotic cells at 2.5 uM incubated for 12 to 48 hrs by Annexin V-FITC/PI staining based flow cytometry (reference value: 1.12 %); type: functional; details: time 12-48 hrs
MDA-MB-231 [25] = assay: Induction of apoptosis in human MDA-MB-231 cells assessed as late apoptotic cells at 2.5 uM incubated for 12 to 48 hrs by Annexin V-FITC/PI staining based flow cytometry (reference value: 1.48 %); type: functional; details: time 12-48 hrs
MDA-MB-231 [26] = assay: Antitumor activity against human MDA-MB-231 cells xenografted in BALB/c mouse assessed as reduction in tumor growth rate at 20 mg/kg, ip qd for 12 days; type: functional, organism-based; details: time 12.0 day
MDA-MB-231 [27] = assay: Antitumor activity against human MDA-MB-231 cells xenografted in BALB/c mouse assessed as reduction in tumor weight at 20 mg/kg, ip qd for 12 days; type: functional, organism-based; details: time 12.0 day
MDA-MB-231 [28] = assay: Antitumor activity against human MDA-MB-231 cells xenografted in BALB/c mouse assessed as reduction in tumor volume at 20 mg/kg, ip qd for 12 days; type: functional, organism-based; details: time 12.0 day
[29] = Toxicity in BALB/c mouse xenografted with human MDA-MB-231 cells assessed as body weight change at 20 mg/kg, ip qd for 12 days; type: organism-based; details: in vivo, 288 h, time 12 day
[30] = target: T2, Serine/threonine-protein kinase PAK 1; assay: In vivo inhibition of PAK1 phosphorylation at S199 in human MDA-MB-231 cells xenografted in BALB/c mouse at 20 mg/kg, ip qd for 12 days by Western blot analysis; type: functional, organism-based; details: time 12.0 day
MDA-MB-231 [31] = assay: Induction of apoptosis in human MDA-MB-231 cells xenografted in BALB/c mouse assessed as increase in Bax level at 20 mg/kg, ip qd for 12 days by Western blot analysis; type: functional, organism-based; details: time 12.0 day
MDA-MB-231 [32] = assay: Induction of apoptosis in human MDA-MB-231 cells xenografted in BALB/c mouse assessed as increase in E-Cadherin level at 20 mg/kg, ip qd for 12 days by Western blot analysis; type: functional, organism-based; details: time 12.0 day
MDA-MB-231 [33] = assay: Induction of apoptosis in human MDA-MB-231 cells xenografted in BALB/c mouse assessed as decrease in ERK1/2 phosphorylation at Thr202/Tyr204 at 20 mg/kg, ip qd for 12 days by Western blot analysis; type: functional, organism-based; details: time 12.0 day
MDA-MB-231 [34] = assay: Induction of apoptosis in human MDA-MB-231 cells xenografted in BALB/c mouse assessed as decrease in MMP-2 at 20 mg/kg, ip qd for 12 days by Western blot analysis; type: functional, organism-based; details: time 12.0 day

Cc1ncsc1-c1ccc([C@H](C)NC(=O)[C@@H]2C[C@@H](O)CN2C(=O)[C@@H](NC(=O)CCc2cn(CCCCCCCn3c(=O)c(-c4ccc(Cl)cc4Cl)cc4cnc(NC5CC5)nc43)nn2)C(C)(C)C)cc1 gave an Activity [1] of 52.4%, a fold change (FC) [2] of 0.29 and a DC50 [3] of 480 nM. The Activity ([3]; dose <= 200.0 µM) was “Dose-Dependent Effect”, the Activity [4] was “inactive” and the Activity (MDA-MB-231 [5]) was “Dose-Dependent Effect”. The Activity (MDA-MB-231 [6]) was “Active”, the inhibition [7] was “Active” and the inhibition [8] was “Active”. The inhibition [9] was “Active”, the inhibition [10] was “inactive” and the Activity (MDA-MB-231 [11]) was 4.37%. For the same compound, the Activity (MDA-MB-231 [12]) was 11.7%, the Activity (MDA-MB-231 [13]) was 4.94% and the Activity (MDA-MB-231 [14]) was “Active”. For the same compound, the Activity (MDA-MB-231 [15]) was “Active”, the Activity (MDA-MB-231 [16]) was “Active” and the inhibition (MDA-MB-231 [17]) was “Active”. The inhibition (MDA-MB-231 [18]) was “Tde”, the inhibition (MDA-MB-231 [19]) was “Active” and the inhibition (MDA-MB-231 [20]) was “Active”. For the same compound, the inhibition (MDA-MB-231 [21]) was “Active”, the inhibition (MDA-MB-231 [22]) was “Active” and the viability at 2.5 µM (MDA-MB-231 [23]) was 84.8%. For the same compound, the Activity (MDA-MB-231 [24]) was 5.62%, the Activity (MDA-MB-231 [25]) was 8.21% and the Activity (MDA-MB-231 [26]) was “Active”. The Activity (MDA-MB-231 [27]) was “Active”, the Activity (MDA-MB-231 [28]) was “Active” and the Activity [29] was “Non-Toxic”. The inhibition [30] was “Active”, the Activity (MDA-MB-231 [31]) was “Active” and the Activity (MDA-MB-231 [32]) was “Active”. For the same compound, the Activity (MDA-MB-231 [33]) was “Active” and the Activity (MDA-MB-231 [34]) was “Active”.

— ChEMBL document CHEMBL6127034, “Design, synthesis and biological evaluation of a novel PAK1 degrader for the treatment of triple negative breast cancer” (Bioorg Med Chem, 2024)
